Counter-ions that a name gives are not always drawn.
Assay: Stability of pemetrexed disodium in sodium hydroxide at different temperature (impurity content by HPLC)
Type: physicochemical
Description: In comparison with the prior art, the embodiments of the present invention have the following advantages: • 1) The reaction of the compound of formula (II) or salt thereof with an aqueous basic solution is preferably conducted at a low temperature, e.g., no more than 10° C., in comparison with the room temperature of WO2001014379 and WO1999016742. As shown in Table 1 shown below, the inventors of the present invention unexpectedly discovered that impurities can be reduced or minimized by conducting the reaction at a low temperature. As noted above, after the reaction step, the low temperature is preferably maintained during the steps of adjusting pH and adding anti-solvent. • 2) The anti-solvent is preferably added before adjusting the pH value. The inventors unexpectedly discovered that by doing so, the mixture can be diluted by the addition of the anti-solvent before the adjusting step, therefore minimizing local heat effect and formation of impurities. In comparison, WO2001014379 discloses adjusting the pH value before the addition of an anti-solvent. • 3) In accordance with the present invention, the compound of formula (II) can be converted to a pemetrexed salt (e.g., at a pH of 6.5 to 9.5). In contrast, the process of WO1999016472 comprises making pemetrexed free form first (at a pH of about 3), and then converting the free form to a salt (at a pH of about 6.5 to 9.5). The process of the present invention is simpler and more convenient. • 4) In accordance with an embodiment of the present invention, the crude pemetrexed salt may be crystallized at a room temperature; whereas in accordance with WO2001014379, the crystallizing is conducted at about 70° C. The cooling, heating, and adjusting pH steps of WO2001014379 may be avoided in accordance with the embodiment of the present invention. The process of the present invention can save workup procedures and has better control of impurity.

Nc1nc2[nH]cc(CCc3ccc(C(=O)N[C@@H](CCC(=O)O)C(=O)O)cc3)c2c(=O)[nH]1 [pemetrexed disodium, L-Glutamic acid, N-[4-[2-(2-amino-4,7-dihydro-4-oxo-1H-pyrrolo[2,3-d]pyrimidin-5-yl)ethyl]benzoyl]-, disodium salt]
content of impurity based on HPLC spectra's % Area (5 °C, 1 hr): 0.012%
content of impurity based on HPLC spectra's % Area (5 °C, 2 hr): 0.013%
content of impurity based on HPLC spectra's % Area (5 °C, 4 h): 0.035%
content of impurity based on HPLC spectra's % Area (5 °C, 6 hr): 0.066%
content of impurity based on HPLC spectra's % Area (10 °C, 1 hr): 0.051%
content of impurity based on HPLC spectra's % Area (10 °C, 2 hr): 0.053%
content of impurity based on HPLC spectra's % Area (10 °C, 4 h): 0.070%
content of impurity based on HPLC spectra's % Area (10 °C, 6 hr): 0.075%
content of impurity based on HPLC spectra's % Area (15 °C, 1 hr): 0.076%
content of impurity based on HPLC spectra's % Area (15 °C, 2 hr): 0.085%
content of impurity based on HPLC spectra's % Area (15 °C, 4 h): 0.110%
content of impurity based on HPLC spectra's % Area (15 °C, 6 hr): 0.123%

From patent US9051322B2, “Process for the production of a pemetrexed salt” (SCINOPHARM TAIWAN, LTD., priority 2011, dated 2015)
